Assay results: patent publication US6150390A, “3-amino-1,2-benzoisoxazole derivatives, process for preparation, and use thereof” (Dong Wha Pharm. Ind. Co., Ltd., priority 1997, dated 2000)
Like-named read-outs stand apart in the source and are kept apart here.

How the values were obtained:
[1] = test system: cells of calvariae of fetal rat (bonelike nodule forming); assay: Bonelike nodule forming in cultured fetal rat calvaria cells; format: cell-based; details: for Area of nodule (mm^2): control 0.12 ± 0.026; for Number of nodule (No.): control 10.04 ± 1.23
Protocol: Approximately 30 of calvariae of fetal rat, removed all the tissue, was dissolved in 5 ml sterilized colagenase (0.1%) and trypsin solution (0.05%) at 37° C. 20 Minutes after dissolving, the released cells were collected, and hereto was added fetal serum to the same amount. This procedure was carried out for 3-6 times in every 20 minutes to collect the isolated cells. Collected cells were separated by centrifugation ([…]) for 5 minutes and it was suspended in α-MEM media, containing 10% (v/v) fetal bovine serum. Collected cells were cultivated in petri dish for 2-3 days, then separated with trypsin, and it were placed in 96 wells to 2.0×10^3 cells/100 μl in each well.
After cultivating the cells for 2-3 days, the media were changed to 5% fetal calf serum, 150 μg/ml ascorbic acid and 5 mM β-glycerophosphate, plus or minus sample (HS-1141). The control was in wells without the sample, and this time was arbitrarily set as […]. Formed nodule was analyzed with image analyzer (Biorad Co., U.S.A.); camcorder (SONY Co.); and microscope (Leitz Co.).

[2] = molecular target: T1, LTB-4 receptor (Homo sapiens, UniProt Q15722); assay: Antagonizing action for LTB-4 receptor ([3H]-LTB-4 binding to human neutrophils); details: for inhibition at 0.01 µM: 10 nM, read-out: Degree of inhibition (%) 10 nM; for inhibition at 0.01 µM / inhibition at 0.1 µM / inhibition at 1 µM: inhibition of selective [3H]-LTB-4 binding, human neutrophils; for inhibition at 0.1 µM: 100 nM, read-out: Degree of inhibition (%) 100 nM; for inhibition at 1 µM: read-out: Degree of inhibition (%) 1 μM
T1 construct: Final neutrophil was dispersed to 3×10^7 cell/ml in HBSS media and used for measuring the antagonizing action for LTB-4 receptor; endogenous in cells; host or cells: neutrophils from human whole blood
T1 sequence (Q15722 whole entry): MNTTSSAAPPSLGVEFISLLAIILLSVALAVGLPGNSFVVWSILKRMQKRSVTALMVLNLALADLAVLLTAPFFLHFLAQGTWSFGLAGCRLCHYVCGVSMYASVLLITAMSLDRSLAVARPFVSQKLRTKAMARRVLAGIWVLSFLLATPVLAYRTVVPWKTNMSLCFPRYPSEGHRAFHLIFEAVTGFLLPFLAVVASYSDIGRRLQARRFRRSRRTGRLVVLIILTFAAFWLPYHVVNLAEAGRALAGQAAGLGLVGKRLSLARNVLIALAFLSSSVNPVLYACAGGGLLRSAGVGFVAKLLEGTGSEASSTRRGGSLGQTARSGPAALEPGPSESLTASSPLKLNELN
Protocol: Neutrophil was separated from whole blood of human by precipitation using "Dextran T-500", and by the inclined centrifugation with Ficoll/Paque (Pharmacia Co.) Boyum, Scan. J. Clin. Lab. Invest., 21 suppl.
Mixed erythrocyte was removed by hemolysis of hypotonic solution. Final neutrophil was dispersed to 3×10^7 cell/ml in HBSS media and used for measuring the antagonizing action for LTB-4 receptor.
0.5 nM of [^3 H]-LTB-4 (200 Ci/mmol), test sample to measure the antagonizing action for LTB-4 receptor, and cell dispersed in HBSS media was added to 12 mm×75 mm of polyethylene tube (final volume: 200 μl), and left in ice bath for 45 minutes.
To separate [^3 H]-LTB-4 bound to neutrophil and isolated [^3 H]-LTB-4 not bound to neutrophil, the above mixture was filtered through GF/C filter (made by Wattman Co.). Filter paper was washed with pH 7.4 of cold Tris-buffer solution (5 ml) for 3 times, dried, and measured radioactivity. The selective binding of LTB-4 to neutrophil can be detected by the difference between radioactivities without antagonist in case that LTB-4 was totally bound to neutrophil, and that LTB-4 was bound to neutrophil in addition of radioisotope-unlabeled LTB-4 1000 times.

[3] = reported in the literature; cited from earlier work

SMILES	Area of nodule (mm^2) ([1]; 10-11 M)	Number of nodule (No.) ([1]; 10-11 M)	Area of nodule (mm^2) ([1]; 10^-8 M)	Number of nodule (No.) ([1]; 10^-8 M)	Area of nodule (mm^2) ([1]; 10^-9 M)	Number of nodule (No.) ([1]; 10^-9 M)	Area of nodule (mm^2) ([1]; 10^-10 M)	Number of nodule (No.) ([1]; 10^-10 M)	increase of remodeling of bonelike nodule ([1]; from Table II, versus control)	inhibition at 0.01 µM [2]	inhibition at 0.1 µM [2]	inhibition at 1 µM [2]	effect of antagonizing action for LTB-4 receptor compared with CGS-25019C ([2]; compared with known compound CGS-25019C)	IC50 ([2]; concentration of 50% of antagonizing in binding to receptor, read-out: IC50)	toxicity to stimulate stomach and intestine [3]	IC50 [2]
COc1cc(C(=O)N(C(C)C)C(C)C)ccc1OCCCCOc1ccc2c(N)noc2c1 [HS-1141, N,N-diisopropyl-4-[4-(3-aminobenzo[d]isoxazol-6-yloxy)butoxy]-3-methoxybenzamide]	0.342 ± 0.065 mm^2	25.67 ± 3.54 No.	0.273 ± 0.019 mm^2	22.80 ± 4.71 No.	0.379 ± 0.068 mm^2	24.00 ± 4.04 No.	0.320 ± 0.082 mm^2	19.40 ± 1.29 No.	> 2 times	64%	95%	99%	better	7 nM		
COc1cc(C(=O)N(C(C)C)C(C)C)ccc1OCCCCCOc1ccc(C(=N)N)cc1 [CGS-25019C, reference compound]										11%	68%	97%			toxicity to stimulate stomach and intestine	80 nM
COc1cc(C(=O)N(C(C)C)C(C)C)ccc1OCCCOc1ccc2c(N)noc2c1 [HS-1151, N,N-diisopropyl-4-[3-(3-aminobenzo[d]isoxazol-6-yloxy)propoxy]-3-methoxybenzamide]										< 10%	37%	92%				
COc1cc(C(=O)N(C(C)C)C(C)C)ccc1OCCCCCOc1ccc2c(N)noc2c1 [HS-1132, N,N-diisopropyl-4-[5-(3-aminobenzo[d]isoxazol-6-yloxy)pentoxy]-3-methoxybenzamide]										< 10%	10%	90%				
